The subject of data set [1] is MCF 7 (human breast adenocarcinoma). Description: MTT cytotoxicity assay, MCF 7. The settings on record: mean ± SD. The format is cell-based. As for the experimental part:
(§1) Three cancerous cell lines, as well as one normal fibroblast cell line, were bought from the ATCC, USA: MCF 7 (human breast adenocarcinoma), A2780 (human ovary adenocarcinoma), HT 29 (human colon adenocarcinoma), and MRC5 (normal human fetal lung fibroblast). The culture procedure was performed as described in the literature. Briefly, the cells were sub-cultured at 37 °C, 5% CO2, 95% air, and 100% relative humidity. RPMI-1640 media (10% FBS, L-glutamine and 1% antibiotic-antimycotic) was used for all cells except for MRC5, which was maintained in Eagles minimum essential medium (EMEM, 10% FBS and 1% antibiotic-antimycotic). Cytotoxicity of compounds 1–7 and 9 was evaluated by an MTT assay as previously described. Each of the three cell lines and one normal fibroblast were cultured in 96-well plates (3 × 10^3/well), and incubated at 37 °C overnight. Final concentrations of each compound were: 0, 0.05, 0.5, 5, 25, and 50 μM in media (DMSO 0.1%). Each concentration was tested in triplicates. The plates were incubated for 72 h and then MTT (50 μL) was added to each well. Plates were incubated for 3 h, supernatant was aspirated, and 100 μL of DMSO was added to each well. Absorbance was read on a multi-plate reader. The optical density of the purple formazan A550 is proportional to the number of viable cells. Compound concentrations causing 50% inhibition (IC50) compared to control cell growth (100%) were determined. GraphPad Prism version 5.00 for Windows, GraphPad Software (San Diego, CA, USA) was used for analysis.
On the technique in general: Tetrazolium assays rely on reduction of a dye to a coloured formazan, in cell work by metabolically active cells.

Data set [2] deals with MRC5 (normal human fetal lung fibroblast). Description: MTT cytotoxicity assay, MRC5 normal fibroblasts. The format is cell-based. The conditions noted are these: 72 h, normal fibroblast cell line, mean ± SD. The method, then: as §1
Data set [3] concerns MCF 7 cells. Description: Annexin V FITC/PI apoptosis assay. The format is cell-based, human. The conditions noted are these: MCF 7, 24 h, 5, 10 and 20 µM. The source says:
Apoptosis was quantified by detecting cell surface exposure of phosphatidylserine (PS) in apoptotic cells using annexin V PI/FITC. Living cells stained with neither of the two dyes (PI−/annexin V−), while early apoptotic cells stain only with annexin V (PI−/annexin V+). In late apoptosis, cell membrane integrity is lost allowing penetration of PI (PI+/annexin V+); while in necrosis (death), cells stain with PI only (PI+/annexin V−).
The Annexin V FITC/PI assay was devised to quantify apoptosis using MCF 7 cells. MCF 7 cells were cultured in 6 well plates (1 × 10^5 cells/well) in 2 mL medium overnight at 37 °C. Then it was treated by compound 1 (24 h; final concentrations: 0, 5, 10, and 20 µM). Media was collected in tubes and kept on ice, and remaining cells were trypsinized, incubated at 37 °C and added to previous tubes. Cells were centrifuged (350 g) and supernatants were discarded. Cells were washed with PBS, centrifuged and pellets re-suspended in binding buffer (100 μL) and annexin V FITC (10 μL). Tubes were incubated at room temperature in the dark for 20 min. Binding buffer (400 μL) and 10 μL propidium iodide (PI) were added. Samples were analyzed by flow cytometry (BC FC500) within 1 h. Viable cells were differentiated from early and late apoptotic/necrotic cells by annexin V (X axis) and PI staining (Y axis).

Data set [4] deals with HT 29 (human colon adenocarcinoma). In words: MTT cytotoxicity assay, HT 29. The format is cell-based. The settings on record: mean ± SD. The method, then:
as §1

The subject of data set [5] is MCF 7 cells. Description: Cell cycle analysis (PI, flow cytometry). The format is cell-based, human. The conditions noted are these: MCF 7, 24 h, 5, 10 and 20 µM, compared to the control. As for the experimental part:
The cell cycle is a series of changes occurring from the initial phase of cell formation leading to its division as a consequence of a specific mechanism. Cell cycle phases include G1 (gap 1), S (synthesis), G2 (gap 2), and M (mitosis), with cell cycle arrest usually taking place in the G1/S or the G2/M check points. Compound 1 was used to treat the MCF 7 cell line (24 h; 5 µM, 10 µM, and 20 µM) to investigate possible cell cycle effect.
Cell cycle analysis was performed using MCF 7 cells, which were cultured in 6 well plates (1 × 10^5 cells/well in 2 mL medium), before treatment with compound 1 (0, 5, 10, and 20 μM; 24 h). Cells were washed with cold PBS and trypsinized. Collected cells were centrifuged at 350 g/5 min, and supernatant discarded. Pellets were washed in cold PBS, centrifuged, and fixed overnight in 70% ice-cold ethanol. Centrifuged cells were re-suspended in cold PBS with the addition of ribonuclease A (15 min), followed by PI (2 µL/mL). Samples were held on ice and analyzed by flow cytometry. Data analysis of the DNA contents (PI bound to DNA) of 20,000 events was carried out using Expo 32 software.
For orientation: Flow cytometry measures light scatter and fluorescence of single cells or particles in a stream.

Data set [6] has as its system MCF 7, A2780, and HT 29 cancer cell lines. In words: MTT cytotoxicity assay, tested cancer cell lines taken together. The conditions noted are these: for IC50: 72 h, MTT assay, MCF 7, A2780, HT 29, read-out: IC50 values against the three tested cancer cell lines (range over cell lines); for folds more selective/cytotoxic against tested cancer cell lines compared to MRC5 normal cells: ratio of MRC5 IC50 to cancer cell line IC50. The format is cell-based, human. The method, then: as §1

The subject of data set [7] is A2780 (human ovary adenocarcinoma). In words: MTT cytotoxicity assay, A2780. The format is cell-based. The settings on record: 72 h, mean ± SD. As for the experimental part: as §1

We go through four compounds from paper PMC8510169, “Isolation, Characterization, Complete Structural Assignment, and Anticancer Activities of the Methoxylated Flavonoids from Rhamnus disperma Roots” (Molecules, 2021).

Read-outs that look alike come from different tables or passages of the source.

The IC50 is the point on the concentration scale where inhibition reaches its midpoint. Turning to `COc1cc2oc(-c3ccc(O)cc3)c(OC)c(=O)c2c(O)c1OC` [Compound 1, 5,4’-dihydroxy-3,6,7-tri-O-methyl flavone (penduletin)], the IC50 in data set [1] (72 h) is 2170 ± 260 nM; in data set [1] (Homo sapiens, MCF7, 72 h), at most 2000 nM; in data set [2] it was 4400 ± 1450 nM; in data set [4] (72 h), 2160 ± 20 nM; in data set [4] (Homo sapiens, HT-29, 72 h), at most 2000 nM; in data set [6] (Homo sapiens) it was 530 to 9070 nM. Further, the results for the IC50 in data set [6] and in data set [7] were 530 to 2170 nM and 530 ± 450 nM, respectively. Also, the “induction of apoptosis (in words)” value in data set [3] was “doubled MCF 7 apoptotic populations in a dose dependent manner”; in data set [3] (listed as compound 1), “induced remarkable apoptosis in a dose dependent manner”. For the same compound, the results for the “effect on cell cycle (in words)” value in data set [5] and in data set [5] (listed as compound 1) were “caused G1 cell cycle arrest” and “caused dose-dependent G1 arrest”, respectively. Further, the “folds more selective/cytotoxic against tested cancer cell lines compared to MRC5 normal cells” value (shortened to “folds more selective/cytotoxic”) in data set [6] is on record as 2–9 folds.
`COc1cc(-c2oc3cc(OC)c(OC)c(O)c3c(=O)c2OC)cc(O)c1OC` [Compound 2, 5,3’-dihydroxy-3,6,7,4’,5’-penta-O-methyl flavone]: the IC50 in data set [1] (Homo sapiens, MCF7, 72 h) came to 6810 ± 40 nM; in data set [2], 5460 ± 1570 nM; in data set [4] (Homo sapiens, HT-29, 72 h), 9070 ± 220 nM; in data set [7], 8970 ± 1720 nM. The “folds more selective/cytotoxic” value in data set [6] is “not selective”.
With `COc1cc(-c2oc3cc(OC)c(OC)c(O)c3c(=O)c2OC)cc(OC)c1OC` [Compound 3, 5-hydroxy-3,6,7,3’,4’,5’-hexa-O-methyl flavone], the IC50 in data set [1] (Homo sapiens, MCF7, 72 h) is 2760 ± 160 nM; in data set [2], 11700 ± 1580 nM; in data set [4] (Homo sapiens, HT-29, 72 h), 2710 ± 1250 nM; in data set [6] (Homo sapiens), 530 to 9070 nM; in data set [7] it was 3730 ± 1750 nM. Also, in data set [6], the “folds more selective/cytotoxic” value was 4–5 folds.
In the case of `COc1cc(-c2oc3cc(OC)c(OC)c(OC(C)=O)c3c(=O)c2OC)cc(OC)c1OC` [Compound 9, 5-O-acetyl-3,6,7,3’,4’,5’-hexa-O-methyl flavone], the IC50 was 2190 ± 640 nM in data set [1] (72 h); 2000 to 3000 nM in data set [1] (Homo sapiens, MCF7, 72 h); 19000 ± 2980 nM in data set [2]; 3180 ± 640 nM in data set [4] (72 h); 2000 to 3000 nM in data set [4] (Homo sapiens, HT-29, 72 h). Also, in data set [6], the “folds more selective/cytotoxic” value is recorded as 6–8 folds.
